{"source": "patent US20260166159A1", "about": "“KRAS G12D DEGRADATION AGENT, AND PREPARATION METHOD AND USE THEREFOR” (LEADINGTAC PHARMACEUTICAL (SHAOXING) CO., LTD., priority 2022, published 2026)", "key": {"KRAS-G12D": {"molecular_target": "T1, KRAS-G12D (Homo sapiens, UniProt P01116, G12D)", "T1 construct": "endogenous in cells; host or cells: A-427 (ATCC), AGS, AsPc-1, Panc 04.03", "T1 sequence (P01116 1-188 isoform P01116-2 G12D)": "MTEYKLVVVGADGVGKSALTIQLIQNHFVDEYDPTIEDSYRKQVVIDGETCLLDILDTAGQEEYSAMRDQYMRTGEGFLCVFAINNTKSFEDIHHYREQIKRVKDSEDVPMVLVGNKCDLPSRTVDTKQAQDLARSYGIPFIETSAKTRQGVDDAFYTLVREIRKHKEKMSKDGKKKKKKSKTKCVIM", "assay": "KRAS-G12D degradation assay (Western Blot), A-427 cells", "assay_type": "cell-based", "details": "A427 cells, 24 h, class symbols; for Dmax: A-427", "procedure,_shortened": "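Western blotting of lysates (5 μg protein) quantified KRAS against a β-actin reference after 24 h exposure to compound at final 0.03–3000 nM in 0.25% DMSO. Cells were A-427, AGS, AsPc-1 or Panc 04.03, all KRAS G12D, at 5×10^5/well. Degradation versus control yielded DC50 and Dmax.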"}, "[1]": {"test_system": "KRAS G12D mutant human lung cancer cell A427", "assay": "3D cell proliferation inhibition assay, A427", "assay_type": "cell-based", "details": "A-427, 168 h, A427, 7 days, CTG, class symbols", "procedure,_shortened": "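For this 7-day anchorage-independent assay, 5×10^2 cells per well were exposed to 10000–0.026 nM test compound with 0.2% DMSO at 37 °C. ATP-based luminescence (CTG) gave viability, and percent inhibition versus DMSO controls was curve-fitted to obtain IC50.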"}}, "data": [{"smiles": "C#Cc1c(F)ccc2cc(O)cc(-c3ncc4c(N5CC6CCC(C5)N6)nc(OCC5(CN6CCN(CC7CCC8(CC7)CCN(C(=O)c7ccc(Cl)c(N9CCC(=O)N(C)C9=O)c7)CC8)CC6)CC5)nc4c3F)c12", "note": "[Example 17, 1-(5-(9-((4-((1-(((4-(3,8-diazabicyclo[3.2.1]octan-3-yl)-7-(8-ethynyl-7-fluoro-3-hydroxynaphthalen-1-yl)-8-fluoropyrido[4,3-d]pyrimidin-2-yl)oxy)methyl)cyclopropyl)methyl)piperazin-1-yl)methyl)-3-azaspiro[5.5]undecane-3-carbonyl)-2-chlorophenyl)-3-methyldihydropyrimidine-2,4(1H,3H)-dione]", "values": [{"measurement": "DC50", "setting": "KRAS-G12D", "value": "1000 to 10000", "unit": "nM"}, {"measurement": "Dmax", "setting": "KRAS-G12D", "value": "< 30", "unit": "%"}, {"measurement": "IC50", "setting": "[1]", "value": "50 to 100", "unit": "nM"}]}, {"smiles": "C#Cc1c(F)ccc2cc(O)cc(-c3ncc4c(N5CC6CCC(C5)N6)nc(OCC5(CN6CCN(CCC7CCC8(CC7)CCN(C(=O)c7ccc(Cl)c(N9CCC(=O)NC9=O)c7)CC8)CC6)CC5)nc4c3F)c12", "note": "[Example 18, 1-(5-(9-(2-(4-((1-(((4-(3,8-diazabicyclo[3.2.1]octan-3-yl)-7-(8-ethynyl-7-fluoro-3-hydroxynaphthalen-1-yl)-8-fluoropyrido[4,3-d]pyrimidin-2-yl)oxy)methyl)cyclopropyl)methyl)piperazin-1-yl)ethyl)-3-azaspiro[5.5]undecane-3-carbonyl)-2-chlorophenyl)dihydropyrimidine-2,4(1H,3H)-dione]", "values": [{"measurement": "DC50", "setting": "KRAS-G12D", "value": "≤ 50", "unit": "nM"}, {"measurement": "Dmax", "setting": "KRAS-G12D", "value": "80 to 100", "unit": "%"}, {"measurement": "IC50", "setting": "[1]", "value": "≤ 50", "unit": "nM"}]}, {"smiles": "CCc1cccc2cc(O)cc(-c3ncc4c(N5CC6CCC(C5)N6)nc(OCC5(CN6CCN(CCCC7CCN(C(=O)c8ccc(Cl)c(N9CCC(=O)NC9=O)c8)CC7)CC6)CC5)nc4c3F)c12", "note": "[Example 19, 1-(5-(4-(3-(4-((1-(((4-(3,8-diazabicyclo[3.2.1]octan-3-yl)-7-(8-ethyl-3-hydroxynaphthalen-1-yl)-8-fluoropyrido[4,3-d]pyrimidin-2-yl)oxy)methyl)cyclopropyl)methyl)piperazin-1-yl)propyl)piperidine-1-carbonyl)-2-chlorophenyl)dihydropyrimidine-2,4(1H,3H)-dione]", "values": [{"measurement": "DC50", "setting": "KRAS-G12D", "value": "50 to 100", "unit": "nM"}, {"measurement": "Dmax", "setting": "KRAS-G12D", "value": "80 to 100", "unit": "%"}, {"measurement": "IC50", "setting": "[1]", "value": "100 to 500", "unit": "nM"}]}, {"smiles": "CCc1cccc2cc(O)cc(-c3ncc4c(N5CC6CCC(C5)N6)nc(OCC5(CN6CCN(CC7CCC8(CC7)CCN(C(=O)c7ccc(OC)c(N9CCC(=O)NC9=O)c7)CC8)CC6)CC5)nc4c3F)c12", "note": "[Example 20, 1-(5-(9-((4-((1-(((4-(3,8-diazabicyclo[3.2.1]octan-3-yl)-7-(8-ethyl-3-hydroxynaphthalen-1-yl)-8-fluoropyrido[4,3-d]pyrimidin-2-yl)oxy)methyl)cyclopropyl)methyl)piperazin-1-yl)methyl)-3-azaspiro[5.5]undecane-3-carbonyl)-2-methoxyphenyl)dihydropyrimidine-2,4(1H,3H)-dione]", "values": [{"measurement": "DC50", "setting": "KRAS-G12D", "value": "≤ 50", "unit": "nM"}, {"measurement": "Dmax", "setting": "KRAS-G12D", "value": "80 to 100", "unit": "%"}, {"measurement": "IC50", "setting": "[1]", "value": "≤ 50", "unit": "nM"}]}, {"smiles": "C#Cc1c(F)ccc2cc(O)cc(-c3ncc4c(N5CC6CCC(C5)N6)nc(OCC5(CN6CCC(COCCC7CCN(C(=O)c8ccc(Cl)c(N9CCC(=O)NC9=O)c8)CC7)CC6)CC5)nc4c3F)c12", "note": "[Example 21, 1-(5-(4-(2-((1-((1-(((4-(3,8-diazabicyclo[3.2.1]octan-3-yl)-7-(8-ethynyl-7-fluoro-3-hydroxynaphthalen-1-yl)-8-fluoropyrido[4,3-d]pyrimidin-2-yl)oxy)methyl)cyclopropyl)methyl)piperidin-4-yl)methoxy)ethyl)piperidine-1-carbonyl)-2-chlorophenyl)dihydropyrimidine-2,4(1H,3H)-dione]", "values": [{"measurement": "DC50", "setting": "KRAS-G12D", "value": "≤ 50", "unit": "nM"}, {"measurement": "Dmax", "setting": "KRAS-G12D", "value": "80 to 100", "unit": "%"}, {"measurement": "IC50", "setting": "[1]", "value": "100 to 500", "unit": "nM"}]}]}
